Source: the NIST ThermoML archive (doi:10.1016/j.fluid.2014.01.013)
± gives the expanded uncertainty stated by the source.

settings: 298.15 K; 101.33 kPa; Liquid; Vibrating tube method

| Compound | mass density [kg/m3] |
| --- | --- |
| CCCCCCCCCCCCCC [tetradecane] | 759.27 ± 0.24 |
| CCCCCCCCCCCCCCCC [hexadecane] | 770.21 ± 0.24 |
| CCCCCCCCCC [decane] | 726.43 ± 0.25 |
| CCCCCCCCCCCC [dodecane] | 741.54 ± 0.58 |
| O=Cc1ccccc1 [benzaldehyde] | 1042.94 ± 0.26 |
